According to ChEMBL document CHEMBL4334512, “Rationally Designed, Conformationally Constrained Inverse Agonists of RORγt-Identification of a Potent, Selective Series with Biologic-Like in Vivo Efficacy” (J Med Chem, 2019):
pEC50, pIC50: −log10 of the molar value.

Key:
Mus musculus [1] = assay: Suppression of IL-22 RNA expression in skin region of mouse model of IL-23 induced acanthosis model of psoriasis at 30 mg/kg, po BID for 10 days measured every other day relative to control; format: functional; details: 240 h
Mus musculus [2] = assay: Suppression of ear thickness in mouse model of IL-23 induced acanthosis model of psoriasis at 3 mg/kg, po BID for 10 days measured every other day relative to control; format: functional; details: 240 h
Mus musculus [3] = assay: Suppression of IL-17F RNA expression in skin region of mouse model of IL-23 induced acanthosis model of psoriasis at 3 mg/kg, po BID for 10 days measured every other day relative to control; format: functional; details: 240 h
[4] = target: T1, Nuclear receptor ROR-gamma (Mus musculus, UniProt P51450); assay: Inverse agonist activity at RORgammat in mouse cells by mTh17 assay; format: cell-based
T1 sequence (P51450 whole entry): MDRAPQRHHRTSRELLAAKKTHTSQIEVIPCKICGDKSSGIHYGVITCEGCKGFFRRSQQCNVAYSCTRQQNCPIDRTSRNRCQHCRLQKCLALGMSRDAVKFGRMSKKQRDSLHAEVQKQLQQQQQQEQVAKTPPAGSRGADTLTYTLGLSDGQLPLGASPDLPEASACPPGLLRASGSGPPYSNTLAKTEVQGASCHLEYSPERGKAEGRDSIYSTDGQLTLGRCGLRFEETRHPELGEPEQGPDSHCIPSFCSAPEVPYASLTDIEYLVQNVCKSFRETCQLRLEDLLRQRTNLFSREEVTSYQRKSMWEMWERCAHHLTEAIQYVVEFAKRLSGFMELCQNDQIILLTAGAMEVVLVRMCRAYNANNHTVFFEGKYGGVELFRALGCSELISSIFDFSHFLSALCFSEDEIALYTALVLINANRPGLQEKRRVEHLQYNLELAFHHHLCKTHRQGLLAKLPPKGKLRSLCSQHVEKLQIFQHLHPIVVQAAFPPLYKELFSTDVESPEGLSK

[5] = Volume of distribution at steady state in dog at 1 mg/kg, iv; format: ADME, organism-based, Canis lupus familiaris; details: in vivo, read-out: Vdss
Mus musculus [6] = assay: Suppression of IL-17F RNA expression in skin region of mouse model of IL-23 induced acanthosis model of psoriasis at 3 to 30 mg/kg, po BID for 10 days measured every other day; format: functional
[7] = Drug level in Balb/c mouse at 10 mg/kg, po after 24 hrs; format: ADME, organism-based; details: in vivo, read-out: Drug uptake
[8] = Half life in mouse at 2 mg/kg, iv; format: ADME, organism-based; details: in vivo
[9] = Oral bioavailability in dog at 1 mg/kg; format: ADME, organism-based, Canis lupus familiaris; details: in vivo
Cytochrome P450 1A2 = target: T2, Cytochrome P450 1A2 (Homo sapiens, UniProt P05177); assay: Inhibition of recombinant CYP1A2 (unknown origin); format: ADME
T2 sequence (P05177 whole entry): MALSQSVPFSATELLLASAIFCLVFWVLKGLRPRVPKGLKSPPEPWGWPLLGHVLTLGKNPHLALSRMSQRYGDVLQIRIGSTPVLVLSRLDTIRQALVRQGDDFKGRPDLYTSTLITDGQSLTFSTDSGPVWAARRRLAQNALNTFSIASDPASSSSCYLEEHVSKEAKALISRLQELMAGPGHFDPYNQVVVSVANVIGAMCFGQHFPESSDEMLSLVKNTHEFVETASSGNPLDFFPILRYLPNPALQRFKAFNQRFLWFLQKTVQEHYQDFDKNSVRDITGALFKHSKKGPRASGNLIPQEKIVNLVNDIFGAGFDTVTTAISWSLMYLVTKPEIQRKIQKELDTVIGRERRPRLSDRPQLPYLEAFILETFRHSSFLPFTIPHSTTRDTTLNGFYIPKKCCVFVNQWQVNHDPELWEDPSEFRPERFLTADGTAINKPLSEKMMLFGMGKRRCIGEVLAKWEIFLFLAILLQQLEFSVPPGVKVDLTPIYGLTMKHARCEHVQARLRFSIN

[10] = target: T3, Oxysterols receptor LXR-alpha (Homo sapiens, UniProt Q13133); assay: Agonist activity at LXRalpha (unknown origin) by Gal4-Luc reporter gene assay
T3 sequence (Q13133 whole entry): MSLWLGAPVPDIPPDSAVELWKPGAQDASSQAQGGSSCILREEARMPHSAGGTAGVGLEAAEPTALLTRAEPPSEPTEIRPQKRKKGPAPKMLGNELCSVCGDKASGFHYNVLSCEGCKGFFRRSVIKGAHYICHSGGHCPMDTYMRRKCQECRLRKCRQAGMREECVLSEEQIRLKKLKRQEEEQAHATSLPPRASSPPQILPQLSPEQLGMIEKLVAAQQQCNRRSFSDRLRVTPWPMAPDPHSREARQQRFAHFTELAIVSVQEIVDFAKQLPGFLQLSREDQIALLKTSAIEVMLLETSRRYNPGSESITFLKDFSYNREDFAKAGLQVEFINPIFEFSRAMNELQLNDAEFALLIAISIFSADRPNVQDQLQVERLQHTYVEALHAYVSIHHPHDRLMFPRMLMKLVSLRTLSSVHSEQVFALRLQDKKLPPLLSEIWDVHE

Mus musculus [11] = assay: Suppression of IL-22 RNA expression in skin region of mouse model of IL-23 induced acanthosis model of psoriasis at 10 mg/kg, po BID for 10 days measured every other day relative to control; format: functional; details: 240 h
[12] = Cmax in rat at 4 mg/kg, po; format: ADME, organism-based; parameters: dose 4 mg/kg, route oral; details: in vivo
Cytochrome P450 2D6 = Cytochrome P450 2D6 (Homo sapiens, UniProt P10635); assay: Inhibition of recombinant CYP2D6 (unknown origin); format: ADME
Sequence of Cytochrome P450 2D6 (P10635 whole entry): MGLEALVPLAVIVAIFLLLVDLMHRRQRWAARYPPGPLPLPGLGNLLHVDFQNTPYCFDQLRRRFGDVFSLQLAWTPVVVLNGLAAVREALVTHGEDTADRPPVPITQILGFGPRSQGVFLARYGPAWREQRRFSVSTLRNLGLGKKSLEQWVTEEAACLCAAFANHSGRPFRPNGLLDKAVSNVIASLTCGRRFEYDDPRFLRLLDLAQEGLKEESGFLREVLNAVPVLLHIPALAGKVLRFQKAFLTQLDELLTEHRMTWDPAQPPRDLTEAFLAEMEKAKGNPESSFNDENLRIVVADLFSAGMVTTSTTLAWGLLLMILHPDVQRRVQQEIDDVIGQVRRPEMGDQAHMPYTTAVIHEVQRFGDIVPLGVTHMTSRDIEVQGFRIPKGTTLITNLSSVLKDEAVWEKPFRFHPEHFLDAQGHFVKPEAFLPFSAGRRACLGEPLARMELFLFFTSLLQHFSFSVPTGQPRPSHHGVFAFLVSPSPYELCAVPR

Mus musculus [13] = assay: Suppression of IL-17F RNA expression in skin region of mouse model of IL-23 induced acanthosis model of psoriasis at 30 mg/kg, po BID for 10 days measured every other day relative to control; format: functional; details: 240 h
[14] = Half life in human liver microsomes; format: ADME, Microsome
[15] = Total AUC in mouse at 4 mg/kg, po; format: ADME, organism-based; parameters: dose 4 mg/kg, route oral, time AUCmax; details: in vivo
Cytochrome P450 2C19 = Cytochrome P450 2C19 (Homo sapiens, UniProt P33261); assay: Inhibition of recombinant CYP2C19 (unknown origin); format: ADME
Sequence of Cytochrome P450 2C19 (P33261 whole entry): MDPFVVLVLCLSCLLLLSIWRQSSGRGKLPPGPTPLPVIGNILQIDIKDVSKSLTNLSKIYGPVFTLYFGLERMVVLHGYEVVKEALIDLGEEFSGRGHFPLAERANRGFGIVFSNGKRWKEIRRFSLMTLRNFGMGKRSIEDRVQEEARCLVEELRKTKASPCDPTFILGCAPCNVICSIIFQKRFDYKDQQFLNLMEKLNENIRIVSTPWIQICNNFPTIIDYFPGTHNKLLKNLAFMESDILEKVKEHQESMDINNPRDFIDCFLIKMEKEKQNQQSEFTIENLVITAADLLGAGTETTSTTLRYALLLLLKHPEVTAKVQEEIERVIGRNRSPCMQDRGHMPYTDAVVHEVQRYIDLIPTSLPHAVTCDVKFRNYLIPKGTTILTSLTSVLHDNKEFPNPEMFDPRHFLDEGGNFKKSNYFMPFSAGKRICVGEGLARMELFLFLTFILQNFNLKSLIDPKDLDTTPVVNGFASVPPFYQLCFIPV

Mus musculus [16] = assay: Suppression of ear thickness in mouse model of IL-23 induced acanthosis model of psoriasis at 10 mg/kg, po BID for 10 days measured every other day relative to anti-IL-23 positive control; format: functional
[17] = Cmax in mouse at 4 mg/kg, po; format: ADME, organism-based; parameters: dose 4 mg/kg, route oral; details: in vivo
[18] = Clearance in mouse at 2 mg/kg, iv; format: ADME, organism-based; details: in vivo
Mus musculus [19] = assay: Suppression of IL-17F production in mouse stimulated at time -24 hrs with IL-2 and at time 0, 7, and 24 hrs with IL-2/IL-23 mixture dosed with compound at 0 and 24 hrs and measured at 30 hrs
[20] = Half life in rat liver microsomes; format: ADME, Microsome
[21] = Half life in mouse liver microsomes; format: ADME, Microsome

Q: With O=C(N1CC[C@@]2(S(=O)(=O)c3ccc(F)cc3)c3ccc(C(F)(C(F)(F)F)C(F)(F)F)cc3CC[C@@H]12)C1(O)CCS(=O)(=O)CC1 as the molecule, how does the inhibition in vivo at 30 mg/kg (Mus musculus [1]) read?
A: Its inhibition in vivo at 30 mg/kg is 97%.

Q: What about the inhibition in vivo at 3 mg/kg (Mus musculus [2]) of the same molecule?
A: Its inhibition in vivo at 3 mg/kg is 28%.

Q: And the inhibition in vivo at 3 mg/kg (Mus musculus [3])?
A: Its inhibition in vivo at 3 mg/kg is 41%.

Q: What about the pEC50 [4] of the same molecule?
A: Its pEC50 is 7.89.

Q: What about the Vd [5] of the same molecule?
A: Its Vd is 2.6 L/kg.

Q: And the Activity (Mus musculus [6])?
A: The Activity was “Dose-dependent effect”.

Q: And the ED50 (Mus musculus [6]; 240 h)?
A: The ED50 was 3 mg/kg.

Q: What about the concentration at 24 h [7] of the same molecule?
A: Its concentration at 24 h is 1100 nM.

Q: What about the half-life [8] of the same molecule?
A: Its half-life is 900 min.

Q: What about the bioavailability [9] of the same molecule?
A: Its bioavailability is 100%.

Q: What about the pIC50 (Cytochrome P450 1A2) of the same molecule?
A: The pIC50 was under 4.70.

Q: And the pEC50 [10]?
A: The pEC50 was under 5.12.

Q: And the inhibition in vivo at 10 mg/kg (Mus musculus [11])?
A: Its inhibition in vivo at 10 mg/kg is 92%.

Q: And the Cmax [12]?
A: The Cmax was 1100 nM.

Q: What about the pIC50 (Cytochrome P450 2D6) of the same molecule?
A: Its pIC50 is under 4.70.

Q: And the inhibition in vivo at 30 mg/kg (Mus musculus [13])?
A: The inhibition in vivo at 30 mg/kg was 85%.

Q: What about the half-life [14] of the same molecule?
A: Its half-life is over 120 min.

Q: And the AUC [15]?
A: The AUC was 58.2 µM·h.

Q: And the pIC50 (Cytochrome P450 2C19)?
A: The pIC50 was under 4.70.

Q: And the Efficacy (Mus musculus [16])?
A: The Efficacy was 88%.

Q: What about the Cmax [17] of the same molecule?
A: Its Cmax is 2200 nM.

Q: And the clearance [18]?
A: The clearance was 1.9 mL/min/kg.

Q: And the pEC50 (Mus musculus [19])?
A: The pEC50 was 7.06.

Q: And the half-life [20]?
A: The half-life was over 120 min.

Q: What about the half-life [21] of the same molecule?
A: The half-life was over 120 min.
